# Experimental data from article PMC10385868 (Viruses, 2023).
# Values joined by “and” are separate entries in the source; they are usually repeats but may differ in a detail not shown here. Equal entries are not always repeated. Where two headings read alike, the source gives them in different places.
# Columns and labels:
# [1] = test system: VEEV-Trd; assay: microbe, parasite or virus in culture; type: cell-based, Venezuelan equine encephalitis virus
# [2] = test system: cell viability
# [3] = in vitro
# [4] = in vitro; conditions: human
# [5] = test system: WEEV; assay: microbe, parasite or virus in culture; type: cell-based; conditions: Western equine encephalitis virus, HeLa, read-out: WEEV EC50
# [6] = test system: EEEV; assay: microbe, parasite or virus in culture; type: cell-based; conditions: Eastern equine encephalitis virus, A549, read-out: EEEV EC50
# [7] = test system: VEEV-TC83; assay: microbe, parasite or virus in culture; type: cell-based; conditions: Venezuelan equine encephalitis virus, HeLa, read-out: VEEV-TC83 EC50
# [8] = test system: VEEV-Trinidad; assay: microbe, parasite or virus in culture; type: cell-based; conditions: Venezuelan equine encephalitis virus
# [9] = molecular target: T1, VEEV nsP2 protease (Venezuelan equine encephalitis virus, UniProt P27282); assay: biochemical
# [10] = test system: CHIKV; assay: microbe, parasite or virus in culture; type: cell-based; conditions: Chikungunya virus, U2OS, read-out: CHIKV EC50
# [11] = test system: VEEV Trinidad; type: cell-based, Venezuelan equine encephalitis virus
# [12] = molecular target: T1, VEEV nsP2 protease; assay: biochemical; type: biochemical
# [13] = in vitro; conditions: African green monkey
# [14] = in vitro; conditions: SD, rat, microsomes
# [15] = rat, microsomes
# [16] = physchem
# [17] = in vitro; conditions: PAMPA
# [18] = test system: VEEV; type: cell-based, Venezuelan equine encephalitis virus
# [19] = test system: EEEV; type: cell-based, eastern equine encephalitis virus
# [20] = test system: CHIKV; type: cell-based, Chikungunya virus
# [21] = molecular target: T1, VEEV nsP2 protease; type: biochemical
# [22] = test system: WEEV; type: cell-based, Western equine encephalitis virus
# [23] = test system: VEEV-infected HeLa cells; assay: microbe, parasite or virus in culture; type: cell-based, Venezuelan equine encephalitis virus
# [24] = A549, read-out: VEEV-Trinidad EC50
# [25] = read-out: VEEV nsP2 PROTEASE k2/Ki
# [26] = Venezuelan equine encephalitis virus
# T1 sequence (P27282 1003-1322 limits assumed): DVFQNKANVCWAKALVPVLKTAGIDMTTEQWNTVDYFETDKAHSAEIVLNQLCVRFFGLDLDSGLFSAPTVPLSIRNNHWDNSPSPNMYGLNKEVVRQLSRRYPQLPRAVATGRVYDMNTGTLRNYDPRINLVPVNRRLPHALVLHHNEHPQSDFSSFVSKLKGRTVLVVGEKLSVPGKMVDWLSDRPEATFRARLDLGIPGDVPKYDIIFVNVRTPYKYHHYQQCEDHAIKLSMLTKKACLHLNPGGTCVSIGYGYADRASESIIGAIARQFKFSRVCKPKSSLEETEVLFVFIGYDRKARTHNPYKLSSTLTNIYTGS
smiles,measurement,setting,value
O=C(Nc1ccccc1)NN(C(=O)CCl)c1ccccc1 [MLS001177992-01],EC50,[1]; read-out: EC50,> 50 µM
same,CC50,[2],> 50 µM
CC(C)CCNC(=O)C(CC(C)C)NC(=O)C1OC1C(=O)O (stereo not shown) [NCGC00018306-02],concentration showing inhibition in cell-based assays,[1],< 15 µM
CC(C)CCNC(=O)[C@H](CC(C)C)NC(=O)[C@H]1O[C@@H]1C(=O)NCc1cccc(C#N)c1 [NCGC00488909-01],CC50,[3]; African green monkey,> 100 µM
same,CC50,[3]; human,> 50 µM
same,CC50,[4],> 50 µM
same,EC50,[5],5.02 µM
same,EC50,[6],43 µM
same,EC50,[7],1.48 µM
same,EC50,[8]; A549,1.8 µM
same,EC50,[8]; [24],1.76 µM
same,Ki,[9],3 µM
same,kinact/KI,[9]; [25],862 M⁻¹ s⁻¹
same,EC50,[10],9.85 µM
COc1cc(NS(C)(=O)=O)ccc1Nc1c2ccccc2nc2ccccc12 [amsacrine],antiviral activity in plaque assays,[11],notable antiviral activities
Cc1cc(C(=O)CCl)c(C)n1-c1cccc([N+](=O)[O-])c1 [MLS000877947-01],EC50,[1]; read-out: EC50,> 50 µM
same,CC50,[2],> 50 µM
same,IC50,[12]; read-out: IC50,> 200 µM
CCc1ccc2c(c1)C(NC(C)=O)C(=O)N2CCN1CCOCC1 (stereo not shown) [MLS001215951-01],CC50,[13],> 50 µM
same,EC50,[1]; [26],> 50 µM
same,IC50,[12],18 ± 7 µM
CC(C)CCNC(=O)[C@H](CC(C)C)NC(=O)[C@H]1O[C@@H]1C(=O)NCc1ccncc1 [NCGC00488908-01],half-life,[14],> 30 min
same,Rat_SD/Microsomes t1/2,[15],>30 m
same,CC50,[3]; African green monkey,> 100 µM
same,CC50,[3]; human,> 50 µM
same,CC50,[4],> 50 µM
same,EC50,[5],14.6 µM
same,EC50,[6],≥ 100 µM
same,solubility,[16],> 60 µg/mL
same,EC50,[7],9.23 µM
same,Papp,[17],7.6 ×10⁻⁶ cm/s
same,EC50,[8]; A549,9.5 µM
same,EC50,[8]; [24],9.45 µM
same,kinact/KI,[9]; [25],23 M⁻¹ s⁻¹
same,PAMPA,,7.6 ×10⁻⁶ cm/s
same,EC50,[10],50 µM
CC(C)CCNC(=O)[C@H](CC(C)C)NC(=O)[C@H]1O[C@@H]1C(=O)NCc1ccc(C#N)cc1 [NCGC00488904-01],CC50,[3]; African green monkey,> 100 µM
same,CC50,[3]; human,> 50 µM
same,CC50,[4],> 50 µM
same,EC50,[5],5.15 µM
same,EC50,[6],16.2 µM
same,EC50,[7],4.09 µM
same,EC50,[8]; A549,4 µM
same,EC50,[8]; [24],4.29 µM
same,kinact/KI,[9]; [25],61 M⁻¹ s⁻¹
same,EC50,[10],14.8 µM
CCc1nc(N2CCN(C(=O)CCl)CC2)c2c3c(sc2n1)CC(C)CC3 (stereo not shown) [MLS001212815-01],EC50,[1]; read-out: EC50,> 50 µM
same,CC50,[2],> 50 µM
same,IC50,[12]; read-out: IC50,> 200 µM
CC(C)CCNC(=O)[C@H](CC(C)C)NC(=O)[C@H]1O[C@@H]1C(=O)NCCCCO [NCGC00488906-01],half-life,[14],> 30 min
same,Rat_SD/Microsomes t1/2,[15],>30 m
same,CC50,[3]; African green monkey,> 100 µM
same,CC50,[3]; human,> 50 µM
same,CC50,[4],> 50 µM
same,EC50,[5],20.4 µM
same,EC50,[6],> 100 µM
same,solubility,[16],15.9 µg/mL
same,EC50,[7],26.6 µM
same,EC50,[8]; A549,26 µM
same,EC50,[8]; [24],26.4 µM
same,kinact/KI,[9]; [25],12 M⁻¹ s⁻¹
same,EC50,[10],18.5 µM
CC(=O)NC1C(=O)N(CCN2CCOCC2)c2ccc(Br)cc21 (stereo not shown) [MLS001215987-01],CC50,[13],> 50 µM
same,EC50,[1]; [26],> 50 µM
same,IC50,[12],14 ± 3 µM
CCC(C)C(NC(=O)C1OC1C(=O)NC(CC(C)C)C(=O)NCCC(C)C)C(=O)N1CCCC1C(=O)OCc1ccccc1 (stereo not shown) [NCGC00484087-01],half-life,[14],1.5 min
same,Rat_SD/Microsomes t1/2,[15],1.5 m
same,CC50,[3]; African green monkey,> 100 µM
same,CC50,[3]; human,> 50 µM
same,CC50,[4],> 50 µM
same,EC50,[5],5.74 µM
same,EC50,[6],13.2 µM
same,solubility,[16],4.1 µg/mL
same,EC50,[7],2.17 µM
same,Papp,[17],1090 ×10⁻⁶ cm/s
same,EC50,[8]; A549,8 µM
same,EC50,[8]; [24],7.9 µM
same,Ki,[9],5 µM
same,kinact/KI,[9]; [25],100 M⁻¹ s⁻¹
same,PAMPA,,1089.1 ×10⁻⁶ cm/s
CC(C)CCNC(=O)[C@H](CC(C)C)NC(=O)[C@H]1O[C@@H]1C(=O)NCc1cccnc1 [NCGC00488907-01],half-life,[14],6.4 min
same,Rat_SD/Microsomes t1/2,[15],6.4 m
same,CC50,[3]; African green monkey,> 100 µM
same,CC50,[3]; human,> 50 µM
same,CC50,[4],> 50 µM
same,EC50,[5],8.76 µM
same,EC50,[6],< 50 µM
same,EC50,[7],5.22 µM
same,Papp,[17],< 4.3 ×10⁻⁶ cm/s
same,EC50,[8]; A549,6 µM
same,EC50,[8]; [24],5.97 µM
same,kinact/KI,[9]; [25],86 M⁻¹ s⁻¹
same,PAMPA,,<4.3 ×10⁻⁶ cm/s
same,EC50,[10],25.9 µM
Cc1ccc(C2=NN(C(=O)CCl)C(c3ccco3)C2)o1 (stereo not shown) [MLS001179882-01],EC50,[1]; read-out: EC50,> 50 µM
same,CC50,[2],> 50 µM
same,IC50,[12]; read-out: IC50,> 200 µM
COc1cc2c(cc1OC)C(c1cc(Br)ccc1F)N(C(=O)CCl)CC2 (stereo not shown) [MLS001198393-01],EC50,[1]; read-out: EC50,> 16.7 µM
same,CC50,[2],> 50 µM
same,IC50,[12]; read-out: IC50,> 200 µM
CCOC(=O)[C@H]1O[C@@H]1C(=O)N[C@@H](CC(C)C)C(=O)NCCC(C)C [E64d],Rat_SD/Microsomes t1/2,[15],1.5 m
same,effect on titers,[18],minor reductions
same,Average titer,[19],2.28 × 10^8 and 2.27 × 10^8
same,effect on titers,[19],no effect
same,efficacy in cell-based assays,[1],ineffective
same,effect on titers,[20],minor reductions
same,solubility,[16],24 µg/mL
same,inhibition in discontinuous assays (SDS-PAGE gels),[21],complete inhibition
same,Papp,[17],89 ×10⁻⁶ cm/s
same,Average titer,[22],2.13 × 10^6 and 2.16 × 10^6
same,effect on titers,[22],no effect
same,Ki,[9],40 ± 30 µM
same,k2,[9]; pH 7,0.10 ± 0.06 min⁻¹
same,kinact/KI,"[9]; pH 7, read-out: k2/Ki",33.3 M⁻¹ s⁻¹
O=c1cc(N2CCOCC2)oc2c1ccc1ccccc12 [NCGC00165840-02],Rat_SD/Microsomes t1/2,[15],>30 m
same,Permeability (PAMPA_Pion_Lipid),PAMPA,294.2 ×10⁻⁶ cm/s
O=c1[nH]c(=O)n(-c2ccccc2F)c(O)c1/C=C1\C=Nc2ccccc21 [MLS001197204-01],EC50,[1]; read-out: EC50,> 50 µM
same,CC50,[2],> 50 µM
same,IC50,[12]; read-out: IC50,30 ± 20 µM
CC(=O)NC1C(=O)N(CCN2CCOCC2)c2ccc(F)cc21 (stereo not shown) [MLS001215963-01],IC50,[12],16 ± 3 µM
CC[C@H]1CN2CCc3cc(OC)c(OC)cc3[C@@H]2C[C@@H]1C[C@H]1NCCc2cc(OC)c(OC)cc21 [emetine],antiviral activity in plaque assays,[11],notable antiviral activities
CCCNC(=O)[C@H]1O[C@H]1C(=O)N[C@H](C(=O)N1CCC[C@@H]1C(=O)OC)C(C)CC (stereo partly shown) [NCGC00163431-03],concentration showing inhibition in cell-based assays,[1],< 15 µM
same,inhibition,[23],83%
same,inhibition at 1.562 µM,"[23]; Venezuelan equine encephalitis virus, HeLa",82.9%
same,concentration at which toxicity / cytotoxicity was seen,[2]; African green monkey,100 µM
N=c1c2c(-c3ccccc3)c(-c3ccccc3)n(Cc3ccccc3)c2ncn1C1CCC(O)CC1 (stereo not shown) [NCGC00247785-13],antiviral activity in plaque assays,[11],notable antiviral activities
O=C(CSc1ccccn1)Nc1nonc1[N+](=O)[O-] [MLS001030320-01],EC50,[1]; read-out: EC50,> 50 µM
same,CC50,[2],> 50 µM
same,IC50,[12]; read-out: IC50,> 100 µM
O=C(/C=C/c1cccs1)Nc1scc(-c2ccccc2)c1C(=O)O [MLS000773385-01],CC50,[13],> 50 µM
same,EC50,[1]; [26],> 50 µM
same,IC50,[12],15 ± 2 µM
CC(C)CCNC(=O)[C@H](CC(C)C)NC(=O)[C@H]1O[C@@H]1C(=O)NCCCO [NCGC00487434-01],Rat_SD/Microsomes t1/2,[15],>30 m
same,CC50,[3]; African green monkey,> 100 µM
same,solubility,[16],22 µg/mL
same,EC50,[8]; A549,70 to 80 µM
"CC(C)CCNC(=O)C(CC(C)C)NC(=O)C1OC1C(=O)O (stereo not shown) [E64c, reference compound]",Rat_SD/Microsomes t1/2,[15],>30 m
same,CC50,[3]; African green monkey,> 100 µM
same,efficacy in cell-based assays,[1],ineffective
same,solubility,[16],33 µg/mL
same,inhibition in discontinuous assays (SDS-PAGE gels),[21],partial inhibition
same,Papp,[17],< 1 ×10⁻⁶ cm/s
same,EC50,[8]; A549,> 100 µM
O=c1[nH]c2ccccc2n1CCCN1CCN(C(c2ccccc2)c2ccccc2)CC1 [oxatomide],antiviral activity in plaque assays,[11],notable antiviral activities
same,reduction of VEEV viral replication in plaque assays,[11],> 5 log
COc1ccc(C2CC(c3cccs3)=NN2C(=O)CCl)cc1OC (stereo not shown) [MLS001178292-01],antiviral activity against VEEV-Trd in cell-based assays,[1]; at 50 µM,did not demonstrate significant antiviral activity
same,CC50,[2],> 50 µM
same,cytotoxicity,[2],cytotoxic
same,IC50,[12]; read-out: IC50,> 200 µM
C#Cc1cc(N2CCN(C(=O)c3ccoc3)CC2)n2nc(-c3cccc(Cl)c3)cc2n1 [MLS003116111-01],antiviral activity in plaque assays,[11],notable antiviral activities
"CCCNC(=O)[C@H]1O[C@@H]1C(=O)N[C@H](C(=O)N1CCC[C@H]1C(=O)OC)[C@@H](C)CC [CA074me, CA074 methyl ester]",half-life,[14],11.1 min
same,reduction in plaque forming units (PFU),[11],~ 5 log
same,Rat_SD/Microsomes t1/2,[15],11.1 m
same,CC50,[3]; African green monkey,> 100 µM
same,efficacy in plaque assays,[18],effective
same,reduction in plaque-forming units (PFU),[18],~6 log
same,viral titer reduction,[18],> 5 logs
same,Average titer,[19],3.12 × 10^4 and 3.20 × 10^6 and 3.18 × 10^7 and 4.57 × 10^7
same,reduction in PFU,[19],2 log
same,reduction in PFU,[20],2 log
same,solubility,[16],22 µg/mL
same,Papp,[17],33 ×10⁻⁶ cm/s
same,EC50,[8]; A549,11 µM
same,reduction in PFU,[22],2 log
same,Ki,[9],1200 ± 500 µM
same,PAMPA,,33 ×10⁻⁶ cm/s
